Test results: ChEMBL document CHEMBL5625250, “Discovery of novel flavonoid-based CDK9 degraders for prostate cancer treatment via a PROTAC strategy” (Eur J Med Chem, 2023)
≈ marks a conversion by molar mass, not a printed value. One block for each molecule: values may come before it. Calls of active or inactive are those of the source. The rule behind the calls is not given here.

Key:
CWR22R [1] = assay: Antitumor activity against human 22Rv1 cells xenografted in BALB/c mouse assessed as tumor growth inhibition at 20 mg/kg, iv administered for 20 days relative to control; assay type: functional; details: 22Rv1, 480 h, time 20 day, read-out: TGI
[2] = biological target: T1, Protein cereblon/Cyclin-dependent kinase 9 (Homo sapiens, UniProt P50750+Q96SW2); assay: PROTAC activity at CRBN/CDK9 in human 22Rv1 cells assessed as degradation of CDK9 protein at 100 nM by Western blotting analysis; assay type: cell-based; details: time 2-24 hrs, TDE = time-dependent effect
Target sequence in this assay (P50750 whole entry, looked up): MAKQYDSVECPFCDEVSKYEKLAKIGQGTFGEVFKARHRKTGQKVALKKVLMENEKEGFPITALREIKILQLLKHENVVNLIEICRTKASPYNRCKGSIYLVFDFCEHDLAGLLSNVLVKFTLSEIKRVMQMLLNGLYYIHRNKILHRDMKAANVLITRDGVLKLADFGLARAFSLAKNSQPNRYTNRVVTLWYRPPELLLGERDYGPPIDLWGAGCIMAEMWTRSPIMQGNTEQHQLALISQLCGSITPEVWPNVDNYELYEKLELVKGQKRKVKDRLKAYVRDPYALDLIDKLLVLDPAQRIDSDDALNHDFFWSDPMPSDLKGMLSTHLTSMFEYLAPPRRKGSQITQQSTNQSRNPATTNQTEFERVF
Target sequence in this assay (Q96SW2 whole entry, looked up): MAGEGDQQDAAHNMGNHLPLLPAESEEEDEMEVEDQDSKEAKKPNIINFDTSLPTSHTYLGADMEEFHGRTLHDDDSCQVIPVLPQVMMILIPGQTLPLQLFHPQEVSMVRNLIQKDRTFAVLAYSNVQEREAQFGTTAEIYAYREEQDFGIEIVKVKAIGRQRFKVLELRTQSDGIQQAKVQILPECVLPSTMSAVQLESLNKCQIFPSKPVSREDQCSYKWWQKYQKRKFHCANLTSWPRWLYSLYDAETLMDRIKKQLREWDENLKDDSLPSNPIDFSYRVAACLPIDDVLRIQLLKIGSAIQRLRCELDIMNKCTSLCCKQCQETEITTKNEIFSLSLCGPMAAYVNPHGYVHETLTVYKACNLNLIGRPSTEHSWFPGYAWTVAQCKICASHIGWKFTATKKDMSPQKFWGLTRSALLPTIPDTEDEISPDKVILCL

[3] = Solubility of the compound in water at pH 6.0 by shake flask method; assay type: physicochemical
CWR22R [4] = assay: In vivo degradation of Mcl-1 expression in human 22Rv1 cells xenografted in BALB/c mouse tumor at 20 mg/kg, iv administered for 18 days by Western blotting analysis; assay type: functional, organism-based; details: time 18.0 day
CWR22R [5] = assay: In vivo degradation of ARv7 expression in human 22Rv1 cells xenografted in BALB/c mouse tumor at 20 mg/kg, iv administered for 18 days by Western blotting analysis; assay type: functional, organism-based; details: time 18.0 day
[6] = biological target: Cyclin-dependent kinase 5 (Homo sapiens) (UniProt Q00535); assay: Induction of CDK5 protein degradation in human 22Rv1 cells at 500 nM incubated for 12 hrs by Western blotting analysis; assay type: cell-based
Chain of Cyclin-dependent kinase 5 (Homo sapiens) (Q00535 whole entry, looked up): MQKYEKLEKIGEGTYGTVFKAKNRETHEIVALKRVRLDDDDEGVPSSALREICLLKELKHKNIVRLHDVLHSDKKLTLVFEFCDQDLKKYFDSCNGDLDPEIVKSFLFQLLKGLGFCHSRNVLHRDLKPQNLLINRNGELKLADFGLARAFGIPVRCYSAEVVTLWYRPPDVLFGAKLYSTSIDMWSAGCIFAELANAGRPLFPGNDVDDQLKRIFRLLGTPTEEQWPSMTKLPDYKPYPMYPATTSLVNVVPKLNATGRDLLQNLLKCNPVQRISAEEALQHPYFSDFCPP

[7] = biological target: T1, Protein cereblon/Cyclin-dependent kinase 9; assay: PROTAC activity at CRBN/CDK9 in human 22Rv1 cells assessed as reduction in Mcl-1 expression incubated for 24 hrs by Western blotting analysis; assay type: cell-based; details: dose 0.1-1.5 µM
Target sequence in this assay (P50750 whole entry, looked up): as the sequence (P50750 whole entry, looked up) above
Target sequence in this assay (Q96SW2 whole entry, looked up): as the sequence (Q96SW2 whole entry, looked up) above

[8] = biological target: T1, Protein cereblon/Cyclin-dependent kinase 9; assay: PROTAC activity at CRBN/CDK9 in human 22Rv1 cells assessed as reduction in c-Myc expression incubated for 24 hrs by Western blotting analysis; assay type: cell-based; details: dose 0.1-1.5 µM
Target sequence in this assay (P50750 whole entry, looked up): as the sequence (P50750 whole entry, looked up) above
Target sequence in this assay (Q96SW2 whole entry, looked up): as the sequence (Q96SW2 whole entry, looked up) above

[9] = biological target: Cyclin-dependent kinase 7 (Homo sapiens) (UniProt P50613); assay: Induction of CDK7 protein degradation in human 22Rv1 cells at 500 nM incubated for 12 hrs by Western blotting analysis; assay type: cell-based
Chain of Cyclin-dependent kinase 7 (Homo sapiens) (P50613 whole entry): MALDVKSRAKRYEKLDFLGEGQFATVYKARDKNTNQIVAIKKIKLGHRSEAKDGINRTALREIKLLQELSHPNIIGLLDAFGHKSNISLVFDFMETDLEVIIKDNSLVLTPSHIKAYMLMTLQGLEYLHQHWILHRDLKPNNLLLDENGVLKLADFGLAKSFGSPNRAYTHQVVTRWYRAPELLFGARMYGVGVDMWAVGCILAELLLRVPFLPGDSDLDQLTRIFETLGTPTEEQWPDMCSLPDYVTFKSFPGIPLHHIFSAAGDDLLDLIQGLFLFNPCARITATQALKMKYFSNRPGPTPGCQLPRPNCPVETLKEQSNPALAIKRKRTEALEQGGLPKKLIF

CWR22R [10] = assay: Antitumor activity against human 22Rv1 cells assessed as complete reduction in colony formation incubated for 2 weeks by crystal violet staining based assay; assay type: functional, cell-based; details: dose 7.8-62.5 nM
CWR22R [11] = assay: Antiproliferative activity against human 22Rv1 cells assessed as reduction in cell viability incubated for 72 hrs by SRB assay; assay type: functional, cell-based; details: 22Rv1, 72 h
[12] = Toxicity in BALB/c mouse xenografted with human 22Rv1 cells assessed as change in body weight at 20 mg/kg, iv administered for 20 days relative to control; assay type: organism-based, CWR22R; details: in vivo, 480 h, time 20 day
[13] = Solubility of the compound in water at pH 7.4 by shake flask method; assay type: physicochemical
[14] = biological target: Cyclin-dependent kinase 2 (Homo sapiens) (UniProt P24941); assay: Induction of CDK2 protein degradation in human 22Rv1 cells at 500 nM incubated for 12 hrs by Western blotting analysis; assay type: cell-based
CWR22R [15] = assay: In vivo degradation of CDK9 expression in human 22Rv1 cells xenografted in BALB/c mouse tumor at 20 mg/kg, iv administered for 18 days by Western blotting analysis; assay type: functional, organism-based; details: time 18.0 day
[16] = biological target: T1, Protein cereblon/Cyclin-dependent kinase 9; assay: PROTAC activity at CRBN/CDK9 in human 22Rv1 cells assessed as degradation of CDK9 protein at 0.1 uM incubated for 12 hrs in presence of MG132 by Western blotting analysis; assay type: cell-based
Target sequence in this assay (P50750 whole entry, looked up): as the sequence (P50750 whole entry, looked up) above
Target sequence in this assay (Q96SW2 whole entry, looked up): as the sequence (Q96SW2 whole entry, looked up) above

[17] = biological target: T1, Protein cereblon/Cyclin-dependent kinase 9; assay: PROTAC activity at CRBN/CDK9 in human 22Rv1 cells assessed as degradation of CDK9 protein at 0.1 uM incubated for 12 hrs in presence of thalidomide by Western blotting analysis; assay type: cell-based
Target sequence in this assay (P50750 whole entry, looked up): as the sequence (P50750 whole entry, looked up) above
Target sequence in this assay (Q96SW2 whole entry, looked up): as the sequence (Q96SW2 whole entry, looked up) above

[18] = Apparent volume of distribution in Sprague-Dawley rat at 2 mg/kg, iv by LC-MS/MS analysis; assay type: ADME, organism-based; details: in vivo, read-out: Vz
[19] = AUC in Sprague-Dawley rat at 2 mg/kg, iv by LC-MS/MS analysis; assay type: ADME, organism-based; details: in vivo
[20] = biological target: T1, Protein cereblon/Cyclin-dependent kinase 9; assay: PROTAC activity at CRBN/CDK9 in human 22Rv1 cells assessed as degradation of CDK9 protein incubated for 12 hrs by Western blotting analysis; assay type: cell-based
CWR22R [21] = assay: In vivo degradation of c-Myc protein level in human 22Rv1 cells xenografted in BALB/c mouse tumor at 20 mg/kg, iv administered for 18 days by immunohistochemistry analysis; assay type: functional, organism-based; details: time 18.0 day
CWR22R [22] = assay: In vivo degradation of c-Myc expression in human 22Rv1 cells xenografted in BALB/c mouse tumor at 20 mg/kg, iv administered for 18 days by Western blotting analysis; assay type: functional, organism-based; details: time 18.0 day
[23] = biological target: T1, Protein cereblon/Cyclin-dependent kinase 9; assay: PROTAC activity at CRBN/CDK9 in human 22Rv1 cells assessed as reduction in cyclin T1 expression at 0.1 to 1.5 uM incubated for 24 hrs by Western blotting analysis; assay type: cell-based; details: dose 0.1-1.5 µM
Target sequence in this assay (P50750 whole entry, looked up): as the sequence (P50750 whole entry, looked up) above
Target sequence in this assay (Q96SW2 whole entry, looked up): as the sequence (Q96SW2 whole entry, looked up) above

[24] = biological target: T1, Protein cereblon/Cyclin-dependent kinase 9; assay: PROTAC activity at CRBN/CDK9 in human 22Rv1 cells assessed as reduction in RNAPII-ser 2 phosphorylation incubated for 24 hrs by Western blotting analysis; assay type: cell-based; details: dose 0.1-1.5 µM
CWR22R [25] = assay: In vivo degradation of CDK9 protein level in human 22Rv1 cells xenografted in BALB/c mouse tumor at 20 mg/kg, iv administered for 18 days by immunohistochemistry analysis; assay type: functional, organism-based; details: time 18.0 day
[26] = biological target: T1, Protein cereblon/Cyclin-dependent kinase 9; assay: PROTAC activity at CRBN/CDK9 in human 22Rv1 cells assessed as degradation of CDK9 protein at 0.1 uM incubated for 12 hrs in presence of LWT-111 by Western blotting analysis; assay type: cell-based
[27] = biological target: T2, Cyclin-dependent kinase 9 (Homo sapiens, UniProt P50750); assay: Inhibition of CDK9 (unknown origin) in presence of ATP by ADP-Glo kinase assay
T2 sequence (P50750 whole entry): as the sequence (P50750 whole entry, looked up) above

[28] = Toxicity in BALB/c mouse xenografted with human 22Rv1 cells assessed as change in body weight at 10 mg/kg, iv administered for 20 days relative to control; assay type: organism-based, CWR22R; details: in vivo, 480 h, time 20 day
[29] = Metabolic stability in human liver microsome assessed as half life at 10 uM by LC-MS/MS analysis; assay type: ADME; details: liver microsomes
CWR22R [30] = assay: Antiproliferative activity against human 22Rv1 cells assessed as reduction in colony formation incubated for 2 weeks by crystal violet staining based assay; assay type: functional, cell-based; details: dose 7.8-62.5 nM
CWR22R [31] = assay: In vivo degradation of Ki67 protein level in human 22Rv1 cells xenografted in BALB/c mouse tumor at 20 mg/kg, iv administered for 18 days by immunohistochemistry analysis; assay type: functional, organism-based; details: time 18.0 day
[32] = biological target: Cyclin-dependent kinase 6 (Homo sapiens) (UniProt Q00534); assay: Induction of CDK6 protein degradation in human 22Rv1 cells at 500 nM incubated for 12 hrs by Western blotting analysis; assay type: cell-based
Chain of Cyclin-dependent kinase 6 (Homo sapiens) (Q00534 whole entry): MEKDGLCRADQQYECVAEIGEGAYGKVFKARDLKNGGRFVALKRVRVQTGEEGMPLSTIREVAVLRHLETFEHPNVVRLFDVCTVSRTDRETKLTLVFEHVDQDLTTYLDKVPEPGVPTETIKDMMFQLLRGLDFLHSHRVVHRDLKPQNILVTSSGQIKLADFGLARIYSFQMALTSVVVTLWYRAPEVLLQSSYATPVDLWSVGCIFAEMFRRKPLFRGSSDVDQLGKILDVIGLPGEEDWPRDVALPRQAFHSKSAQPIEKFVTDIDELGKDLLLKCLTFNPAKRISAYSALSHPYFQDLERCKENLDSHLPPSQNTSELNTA

[33] = biological target: T1, Protein cereblon/Cyclin-dependent kinase 9; assay: PROTAC activity at CRBN/CDK9 in human 22Rv1 cells assessed as degradation of CDK9 protein at 100 nM incubated for 12 hrs by Western blotting analysis relative to control; assay type: cell-based
[34] = biological target: Cyclin-dependent kinase 4 (Homo sapiens) (UniProt P11802); assay: Induction of CDK4 protein degradation in human 22Rv1 cells at 500 nM incubated for 12 hrs by Western blotting analysis; assay type: cell-based
Chain of Cyclin-dependent kinase 4 (Homo sapiens) (P11802 whole entry): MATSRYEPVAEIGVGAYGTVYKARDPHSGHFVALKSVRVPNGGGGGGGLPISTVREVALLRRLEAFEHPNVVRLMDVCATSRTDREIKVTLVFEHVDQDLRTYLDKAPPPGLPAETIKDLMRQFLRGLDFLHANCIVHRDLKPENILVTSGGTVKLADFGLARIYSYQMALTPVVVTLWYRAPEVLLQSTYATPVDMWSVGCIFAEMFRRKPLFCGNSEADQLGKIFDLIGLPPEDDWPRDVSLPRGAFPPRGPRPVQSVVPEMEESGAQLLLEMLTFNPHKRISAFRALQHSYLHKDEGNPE

CWR22R [35] = assay: Antitumor activity against human 22Rv1 cells assessed as complete reduction in colony formation at 60 nM incubated for 2 weeks by crystal violet staining based assay; assay type: functional; set-up: scale not given: the % may be the effect or the level left
[36] = biological target: T1, Protein cereblon/Cyclin-dependent kinase 9; assay: PROTAC activity at CRBN/CDK9 in human 22Rv1 cells assessed as degradation of CDK9 protein at 500 nM incubated for 12 hrs by Western blotting analysis; assay type: cell-based
[37] = Half life in Sprague-Dawley rat at 2 mg/kg, iv by LC-MS/MS analysis; assay type: ADME, organism-based; details: in vivo
[38] = Toxicity in BALB/c mouse xenografted with human 22Rv1 cells assessed as mortality at 10 to 20 mg/kg, iv administered for 20 days; assay type: organism-based, CWR22R; details: in vivo, 480 h, dose 10-20 mg/kg, time 20 day
CWR22R [39] = assay: Antitumor activity against human 22Rv1 cells xenografted in BALB/c mouse assessed as tumor growth inhibition at 10 mg/kg, iv administered for 20 days relative to control; assay type: functional; details: 22Rv1, 480 h, time 20 day, read-out: TGI
[40] = biological target: T2, Cyclin-dependent kinase 9; assay: Inhibition of CDK9 (unknown origin) at 20 nM in presence of ATP by ADP-Glo kinase assay relative to control
[41] = biological target: T1, Protein cereblon/Cyclin-dependent kinase 9; assay: PROTAC activity at CRBN/CDK9 in human 22Rv1 cells assessed as degradation of CDK9 protein at 100 nM incubated for 12 hrs by Western blotting analysis; assay type: cell-based

SMILES: COc1cc(O)c2c(=O)cc(-c3ccc(N4CCN(CC5CCN(c6ccc7c(c6)C(=O)N(C6CCC(=O)NC6=O)C7=O)CC5)CC4)cc3)oc2c1C1=CCN(C)CC1 (stereo not given)
inhibition in vivo at 20 mg/kg (CWR22R [1]): 75.1%
Activity [2]: Tde
solubility thermodynamic [3]: 0.125 mg/mL (≈ 156 µM)
Activity (CWR22R [4]): Active
Activity (CWR22R [5]): Active
Activity [6]: inactive
Activity [7]: Dose-Dependent Effect
Activity [8]: Dose-Dependent Effect
Activity [9]: inactive
Activity (CWR22R [10]): Dose-Dependent Effect
IC50 (CWR22R [11]): 0.06 µM
Activity [12]: 15.3%
solubility thermodynamic [13]: 0.053 mg/mL (≈ 66.2 µM)
Activity [14]: inactive
Activity (CWR22R [15]): Active
Activity [16]: inactive
Activity [17]: inactive
Vd [18]: 22.6 L/kg
AUC [19]: 0.681 µg·h/mL
Activity [20]: Dose-Dependent Effect
DC50 [20]: 0.043 µM
Activity (CWR22R [21]): Active
Activity (CWR22R [22]): Active
Activity [23]: Active
Activity [24]: Dose-Dependent Effect
Activity (CWR22R [25]): Active
Activity [26]: inactive
IC50 [27]: 0.0033 µM
Activity [28]: 12.5%
half-life at 10 µM [29]: 1.62 h
Activity (CWR22R [30]): Dose-Dependent Effect
Activity (CWR22R [31]): Active
Activity [32]: inactive
Activity [33]: 80%
Activity [34]: inactive
Activity (CWR22R [35]): 100%
Activity [36]: 100%
half-life [37]: 11.1 h
Activity [38]: Non-Toxic
inhibition in vivo at 10 mg/kg (CWR22R [39]): 65.7%
inhibition [40]: 85.6%

solubility thermodynamic [3]: < 0.01 mg/mL
solubility thermodynamic [13]: < 0.01 mg/mL
inhibition [40]: 69.5%
SMILES: COc1cc(O)c2c(=O)cc(-c3ccc(N4CCN(C(=O)CCCCCCCOc5cccc6c5C(=O)N(C5CCC(=O)NC5=O)C6=O)CC4)cc3)oc2c1C1=CCN(C)CC1 (stereo not given)
IC50 (CWR22R [11]): 1.81 µM

solubility thermodynamic [3]: < 0.01 mg/mL
solubility thermodynamic [13]: < 0.01 mg/mL
inhibition [40]: 69.9%
SMILES: COc1cc(O)c2c(=O)cc(-c3ccc(N4CCN(C(=O)CCCCCOc5cccc6c5C(=O)N(C5CCC(=O)NC5=O)C6=O)CC4)cc3)oc2c1C1=CCN(C)CC1 (stereo not given)
IC50 (CWR22R [11]): 0.65 µM

solubility thermodynamic [3]: < 0.01 mg/mL
solubility thermodynamic [13]: < 0.01 mg/mL
Activity [41]: Active
inhibition [40]: 34.2%
SMILES: COc1cc(O)c2c(=O)cc(-c3ccc(N4CCN(C(=O)CCCCCCCCCOc5cccc6c5C(=O)N(C5CCC(=O)NC5=O)C6=O)CC4)cc3)oc2c1C1=CCN(C)CC1 (stereo not given)
IC50 (CWR22R [11]): 0.12 µM

SMILES: CN1CC[C@H](c2c(O)cc(O)c3c(=O)cc(-c4ccccc4Cl)oc23)[C@H](O)C1 [ALVOCIDIB]
IC50 (CWR22R [11]): 0.24 µM

solubility thermodynamic [3]: < 0.01 mg/mL
solubility thermodynamic [13]: 0.021 mg/mL (≈ 27.6 µM)
Activity [33]: 80%
inhibition [40]: 84.1%
SMILES: COc1cc(O)c2c(=O)cc(-c3ccc(N4CCN(C(=O)CNc5cccc6c5C(=O)N(C5CCC(=O)NC5=O)C6=O)CC4)cc3)oc2c1C1=CCN(C)CC1 (stereo not given)
IC50 (CWR22R [11]): 0.1 µM
